Reference: patent US20220388964A1 (HiberCell, Inc., priority 2019, published 2022)

The compounds below were run against GCN2 (Homo sapiens, UniProt Q9P2K8) (assay: TR-FRET biochemical assay for inhibition of GCN2 (Example 106, for Example 1-4BB)). Conditions: Table 8.
Sequence of GCN2 (Q9P2K8 whole entry): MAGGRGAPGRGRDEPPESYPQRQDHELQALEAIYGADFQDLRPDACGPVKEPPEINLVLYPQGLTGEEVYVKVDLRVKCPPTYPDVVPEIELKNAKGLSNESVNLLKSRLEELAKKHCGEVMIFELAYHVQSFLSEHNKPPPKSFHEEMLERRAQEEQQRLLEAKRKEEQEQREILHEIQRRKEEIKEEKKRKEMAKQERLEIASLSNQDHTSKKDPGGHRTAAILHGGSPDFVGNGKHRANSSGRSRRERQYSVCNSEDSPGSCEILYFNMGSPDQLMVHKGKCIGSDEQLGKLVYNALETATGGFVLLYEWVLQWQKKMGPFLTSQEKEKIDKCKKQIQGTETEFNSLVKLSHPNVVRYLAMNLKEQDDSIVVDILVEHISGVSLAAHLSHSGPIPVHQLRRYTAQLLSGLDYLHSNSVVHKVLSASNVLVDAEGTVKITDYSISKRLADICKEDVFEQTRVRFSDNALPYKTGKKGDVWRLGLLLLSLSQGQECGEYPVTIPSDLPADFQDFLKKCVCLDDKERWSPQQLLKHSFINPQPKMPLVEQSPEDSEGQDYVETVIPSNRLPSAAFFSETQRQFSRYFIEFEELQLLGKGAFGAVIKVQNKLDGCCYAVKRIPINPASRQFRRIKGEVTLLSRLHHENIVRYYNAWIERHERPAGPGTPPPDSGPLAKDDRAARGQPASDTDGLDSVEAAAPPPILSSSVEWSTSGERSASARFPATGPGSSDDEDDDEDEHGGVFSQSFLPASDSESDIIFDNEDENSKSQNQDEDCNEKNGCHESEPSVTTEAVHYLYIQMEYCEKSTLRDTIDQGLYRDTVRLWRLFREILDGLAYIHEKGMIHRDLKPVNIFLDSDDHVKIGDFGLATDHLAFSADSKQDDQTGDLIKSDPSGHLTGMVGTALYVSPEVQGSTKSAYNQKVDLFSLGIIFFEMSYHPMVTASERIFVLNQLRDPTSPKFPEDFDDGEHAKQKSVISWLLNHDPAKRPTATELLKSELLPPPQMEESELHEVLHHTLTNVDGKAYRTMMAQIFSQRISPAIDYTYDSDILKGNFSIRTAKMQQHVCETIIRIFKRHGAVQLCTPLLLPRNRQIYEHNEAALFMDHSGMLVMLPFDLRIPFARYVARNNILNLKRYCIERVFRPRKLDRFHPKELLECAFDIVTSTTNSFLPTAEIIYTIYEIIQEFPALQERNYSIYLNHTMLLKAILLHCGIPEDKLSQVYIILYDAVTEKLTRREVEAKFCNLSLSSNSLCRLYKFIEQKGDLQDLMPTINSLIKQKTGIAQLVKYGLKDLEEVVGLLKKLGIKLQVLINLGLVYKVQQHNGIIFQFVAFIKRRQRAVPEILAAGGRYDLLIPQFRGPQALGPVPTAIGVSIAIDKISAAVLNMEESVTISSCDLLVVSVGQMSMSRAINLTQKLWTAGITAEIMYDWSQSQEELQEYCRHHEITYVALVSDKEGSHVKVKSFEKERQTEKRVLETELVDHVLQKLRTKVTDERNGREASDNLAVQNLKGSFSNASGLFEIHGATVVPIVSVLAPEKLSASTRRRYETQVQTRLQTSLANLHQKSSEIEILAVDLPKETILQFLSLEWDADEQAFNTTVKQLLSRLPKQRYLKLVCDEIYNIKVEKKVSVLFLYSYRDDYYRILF

IC50 [nM]	SMILES
2500 to 10000	Cn1ncc(S(=O)(=O)Nc2ccc(F)c(-c3ccc4c(-c5ncc[nH]5)n[nH]c4c3F)c2F)n1 [Example 2Y, N-(2,4-difluoro-3-(7-fluoro-3-(1H-imidazol-2-yl)-1H-indazol-6-yl)phenyl)-2-methyl-2H-l,2,3-triazole-4-sulfonamide]
500 to 2500	COc1ncc(Cl)cc1S(=O)(=O)Nc1ccc(F)c(-c2ccc3c(NC(C)=O)n[nH]c3c2F)c1F [Example 8, N-(6-(3-((5-Chloro-2-methoxypyridine)-3-sulfonamido)-2,6-difluorophenyl)-7-fluoro-1H-indazol-3-yl)acetamide]
500 to 2500	O=S(=O)(Nc1ccc(F)c(-c2ccc3c(-c4ncc[nH]4)n[nH]c3c2F)c1F)c1ccccc1 [Example 2BV, N-(2,4-difluoro-3-(7-fluoro-3-(1H-imidazol-2-yl)-1H-indazol-6-yl)phenyl)benzene-sulfonamide]
2500 to 10000	Cn1ccnc1S(=O)(=O)Nc1ccc(F)c(-c2ccc3c(-c4ncc[nH]4)n[nH]c3c2F)c1F [Example 2S, N-(2,4-difluoro-3-(7-fluoro-3-(1H-imidazol-2-yl)-1H-indazol-6-yl)phenyl)-1-methyl-1H-imidazole-2-sulfonamide]
> 10000	CC(C)c1ccc(S(=O)(=O)Nc2ccc(F)c(-c3ccc4c(-c5ncc[nH]5)n[nH]c4c3F)c2F)cc1 [Example 2G, N-(2,4-difluoro-3-(7-fluoro-3-(1H-imidazol-2-yl)-1H-indazol-6-yl)phenyl)-4-isopropyl-benzenesulfonamide]
< 500	Cc1ncc(F)cc1S(=O)(=O)Nc1ccc(F)c(-c2ccc3c(-c4ncc[nH]4)n[nH]c3c2F)c1F [Example 2AB, N-(2,4-difluoro-3-(7-fluoro-3-(1H-imidazol-2-yl)-1H-indazol-6-yl)phenyl)-5-fluoro-2-methylpyridine-3-sulfonamide]
< 500	COc1ncc(Cl)cc1S(=O)(=O)Nc1ccc(F)c(-c2ccc3c(C(=O)NCCCO)n[nH]c3c2F)c1F [Example 2CI, 6-(3-((5-chloro-2-methoxy-pyridine)-3-sulfonamido)-2,6-difluorophenyl)-7-fluoro-N-(3-hydroxypropyl)-1H-indazole-3-carboxamide]
500 to 2500	O=S(=O)(Nc1ccc(F)c(-c2ccc3c(-c4ncc[nH]4)n[nH]c3c2F)c1F)c1cccnc1CO [Example 2Q, N-(2,4-difluoro-3-(7-fluoro-3-(1H-imidazol-2-yl)-1H-indazol-6-yl)phenyl)-2-(hydroxyl-methyl)pyridine-3-sulfonamide]
< 500	COc1ncc(Cl)cc1S(=O)(=O)Nc1ccc(F)c(-c2ccc3c(C(N)=O)n[nH]c3c2F)c1F [Example 2Z, 6-(3-((5-chloro-2-methoxy-pyridine)-3-sulfonamido)-2,6-difluorophenyl)-7-fluoro-1H-indazole-3-carboxamide]
500 to 2500	O=S(=O)(Nc1ccc(F)c(-c2ccc3cn[nH]c3c2)c1F)c1cc(Cl)ccc1Cl [Example 2BX, 2,5-dichloro-N-(2,4-difluoro-3-(1H-indazol-6-yl)phenyl)benzenesulfonamide]

Same assay, conditions: Table 9

SMILES	IC50 [nM]
COc1ncc(F)cc1S(=O)(=O)Nc1cccc(-c2ccc3c(C(=O)NC[C@@H](O)CO)n[nH]c3c2F)c1F [Example 3AX, 6-(2-fluoro-3-((5-fluoro-2-methoxypyridine)-3-sulfonamido)phenyl)-N-((R)-2,3-dihydroxypropyl)-7-fluoro-1H-indazole-3-carboxamide]	500 to 2500
COc1ncc(Cl)cc1S(=O)(=O)Nc1cccc(-c2cc3[nH]nc(C(N)=O)c3cn2)c1F [Example 3BD, 6-(3-((5-chloro-2-methoxy-pyridine)-3-sulfonamido)-2-fluorophenyl)-1H-pyrazolo-[4,3-c]pyridine-3-carboxamide]	< 500
Cc1ncc(F)cc1S(=O)(=O)Nc1ccc(F)c(-c2ccc3c(C(=O)NCCCO)n[nH]c3c2F)c1F [Example 3AZ, 6-(2,6-difluoro-3-((5-fluoro-2-methylpyridine)-3-sulfonamido)phenyl)-7-fluoro-N-(3-hydroxypropyl)-1H-indazole-3-carboxamide]	< 500
COc1ncncc1S(=O)(=O)Nc1ccc(F)c(-c2ccc3c(C(=O)NCCCO)n[nH]c3c2F)c1F [Example 3CL, 6-(2,6-difluoro-3-((4-methoxypyrimidine)-5-sulfonamido)phenyl)-7-fluoro-N-(3-hydroxypropyl)-1H-indazole-3-carboxamide]	> 10000
COc1ncc(Cl)cc1S(=O)(=O)Nc1cc(F)cc(-c2ccc3c(C(=O)NCCCN(C)C)n[nH]c3c2F)c1F [Example 3BB, 6-(3-((5-chloro-2-methoxy-pyridine)-3-sulfonamido)-2,5-difluorophenyl)-N-(3-(dimethylamino)propyl)-7-fluoro-1H-indazole-3-carboxamide]	< 500
COc1ncc(F)cc1S(=O)(=O)Nc1ccc(F)c(-c2ccc3c(C(=O)NCC4CCN(C)CC4)n[nH]c3c2F)c1F [Example 3AK, 6-(2,6-difluoro-3-((5-fluoro-2-methoxypyridine)-3-sulfonamido)phenyl)-7-fluoro-N-((1-methylpiperidin-4-yl)methyl)-1H-indazole-3-carboxamide]	< 500

Further lines, results first:

IC50 [nM]	SMILES
< 500	COc1ncc(Cl)cc1S(=O)(=O)Nc1ccc(F)c(-c2ccc3c(C(=O)Nc4cnoc4)n[nH]c3c2F)c1F [Example 3CV, 6-(3-((5-chloro-2-methoxy-pyridine)-3-sulfonamido)-2,6-difluorophenyl)-7-fluoro-N-(isoxazol-4-yl)-1H-indazole-3-carboxamide]
< 500	Cc1ncc(F)cc1S(=O)(=O)Nc1ccc(F)c(-c2ccc3c(C(=O)Nc4cn[nH]c4)n[nH]c3c2F)c1F [Example 3DS, 6-(2,6-difluoro-3-((5-fluoro-2-methylpyridine)-3-sulfonamido)phenyl)-7-fluoro-N-(1H-pyrazol-4-yl)-1H-indazole-3-carboxamide]
500 to 2500	COc1ncc(F)cc1S(=O)(=O)Nc1cccc(-c2ccc3c(-c4ncc[nH]4)n[nH]c3c2Cl)c1F [Example 18, N-(3-(7-Chloro-3-(1H-imidazol-2-yl)-1H-indazol-6-yl)-2-fluorophenyl)-5-fluoro-2-methoxypyridine-3-sulfonamide]
< 500	COc1ncc(F)cc1S(=O)(=O)Nc1ccc(F)c(-c2ccc3c(-c4n[nH]c(=O)[nH]4)n[nH]c3c2F)c1F [Example 3CW, N-(2,4-difluoro-3-(7-fluoro-3-(5-oxo-4,5-dihydro-1H-1,2,4-triazol-3-yl)-1H-indazol-6-yl)phenyl)-5-fluoro-2-methoxypyridine-3-sulfonamide]
500 to 2500	COc1ncncc1S(=O)(=O)Nc1ccc(F)c(-c2ccc3c(-c4ncc[nH]4)n[nH]c3c2F)c1F [Example 3CX, N-(2,4-difluoro-3-(7-fluoro-3-(1H-imidazol-2-yl)-1H-indazol-6-yl)phenyl)-4-methoxypyrimidine-5-sulfonamide]
< 500	COc1ncc(F)cc1S(=O)(=O)Nc1cc(F)cc(-c2ccc3c(C(=O)N[C@@H]4CCN(C)C4)n[nH]c3c2F)c1F [Example 3BS, 6-(3-((5-fluoro-2-methoxy-pyridine)-3-sulfonamido)-2,5-difluorophenyl)-7-fluoro-N-((R)-1-methylpyrrolidin-3-yl)-1H-indazole-3-carboxamide]
< 500	COc1ncc(Cl)cc1S(=O)(=O)Nc1ccc(F)c(-c2ccc3c(C(=O)Nc4cnn(CCO)c4)n[nH]c3c2F)c1F [Example 3CT, 6-(3-((5-chloro-2-methoxy-pyridine)-3-sulfonamido)-2,6-difluorophenyl)-7-fluoro-N-(1-(2-hydroxyethyl)-1H-pyrazol-4-yl)-1H-indazole-3-carboxamide]
< 500	COc1ncc(Cl)cc1S(=O)(=O)Nc1cccc(-c2cc3[nH]nc(C(=O)NCCCN(C)C)c3cn2)c1F [Example 35, 6-[3-[(5-chloro-2-methoxy-3-pyridyl)sulfonylamino]-2-fluoro-phenyl]-N-[3-(dimethylamino)propyl]-1H-pyrazolo[4,3-c]pyridine-3-carboxamide]
500 to 2500	COc1ncc(F)cc1S(=O)(=O)Nc1cccc(-c2ccc3c(C(=O)NCC[C@@H](O)CO)n[nH]c3c2F)c1F [Example 3BH, 6-(2-fluoro-3-((5-fluoro-2-methoxypyridine)-3-sulfonamido)phenyl)-N-((R)-3,4-dihydroxybutyl)-7-fluoro-1H-indazole-3-carboxamide]
500 to 2500	COc1ncc(Cl)cc1S(=O)(=O)Nc1ccc(F)c(-c2ccc3c(C(=O)Nc4nnn(C)n4)n[nH]c3c2F)c1F [Example 3CZ, 6-(3-((5-chloro-2-methoxy-pyridine)-3-sulfonamido)-2,6-difluorophenyl)-7-fluoro-N-(2-methyl-2H-tetrazol-5-yl)-1H-indazole-3-carboxamide]
< 500	COc1ncc(Cl)cc1S(=O)(=O)Nc1cc(F)cc(-c2ccc3c(C(=O)N[C@@H]4CCN(C)C4)n[nH]c3c2F)c1F [Example 3BL, 6-(3-((5-chloro-2-methoxy-pyridine)-3-sulfonamido)-2,5-difluorophenyl)-7-fluoro-N-((R)-1-methylpyrrolidin-3-yl)-1H-indazole-3-carboxamide]
< 500	COc1ncc(Cl)cc1S(=O)(=O)Nc1cc(F)cc(-c2ccc3c(C(N)=O)n[nH]c3c2F)c1F [Example 3CF, 6-(3-((5-chloro-2-methoxy-pyridine)-3-sulfonamido)-2,5-difluorophenyl)-7-fluoro-1H-indazole-3-carboxamide]
< 500	COc1ncc(F)cc1S(=O)(=O)Nc1ccc(F)c(-c2ccc3c(C(=O)Nc4ccc(C)nc4)n[nH]c3c2F)c1F [Example 3BX, 6-(2,6-difluoro-3-((5-fluoro-2-methoxypyridine)-3-sulfonamido)phenyl)-7-fluoro-N-(6-methylpyridin-3-yl)-1H-indazole-3-carboxamide]
> 10000	Cc1ncccc1S(=O)(=O)Nc1ncc(F)c(-c2ccc3c(-c4ncc[nH]4)n[nH]c3c2F)c1F [Example 3L, N-(3,5-difluoro-4-(7-fluoro-3-(1H-imidazol-2-yl)-1H-indazol-6-yl)pyridin-2-yl)-2-methylpyridine-3-sulfonamide]
< 500	O=C1CCc2c1cc(F)cc2S(=O)(=O)Nc1ccc(F)c(-c2ccc3c(C(=O)Nc4cn[nH]c4)n[nH]c3c2F)c1F [Example 4AD]
